Laboratory results taken from publication PMC11249646, “Small-Molecule Disruptors of the Interaction between Calcium- and Integrin-Binding Protein 1 and Integrin αIIbβ3 as Novel Antiplatelet Agents” (ACS Pharmacology & Translational Science, 2024).
Read-outs that look alike come from different tables or passages of the source.

Legend:
[1] = molecular target: T1, CIB1 and αIIb interaction (CIB1-GST : F-αIIb peptide) (Homo sapiens, UniProt Q99828); assay: FP assay, 1536-well qHTS format (primary and confirmatory screen); assay type: binding; settings: for Curve Class (confirmatory screen) / CONFIRMATORY SCREEN Curve Class: qHTS curve class
T1 construct: made in house; host or cells: BL-21 plus RIL cells (E. coli)
T1 sequence (Q99828 1-191): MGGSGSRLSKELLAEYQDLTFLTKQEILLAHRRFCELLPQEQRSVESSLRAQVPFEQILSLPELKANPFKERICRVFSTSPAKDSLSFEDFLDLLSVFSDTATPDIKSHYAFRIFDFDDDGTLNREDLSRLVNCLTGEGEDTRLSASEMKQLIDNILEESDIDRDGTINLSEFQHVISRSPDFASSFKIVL

[2] = molecular target: T2, GST-CIB1 : F-scrambled peptide (Homo sapiens, UniProt Q99828); assay: FP scrambled-peptide counter screen, 1536-well format; assay type: binding; settings: for Confirm? (counterscreen) / COUNTERSCREEN Confirm?: YES/NO call; for Curve Class (counterscreen) / COUNTERSCREEN Curve Class: qHTS curve class
T2 construct: made in house; host or cells: BL-21 plus RIL cells (E. coli)
T2 sequence (Q99828 1-191): T1 sequence (Q99828 1-191)

[3] = Table S3, confirmatory screen, a negative sign marks inhibitory curves
[4] = Table S3, confirmatory screen, negative = inhibition
[5] = qHTS primary screen hits, Table S2, negative = inhibition
[6] = qHTS primary screen hits, Table S2, negative sign = inhibitory curve, several classes where COUNT > 1
[7] = qHTS primary screen hits, Table S2, read-out: IC50
[8] = Table S3, counterscreen, a negative sign marks inhibitory curves
[9] = Table S3, counterscreen, negative = inhibition
[10] = Table S3, counterscreen, read-out: IC50 [μM] (counterscreen)
[11] = confirmatory screen, YES/NO call
[12] = confirmatory screen, negative sign = inhibitory curve
[13] = confirmatory screen, negative = inhibition
[14] = scrambled-peptide counterscreen
[15] = confirmatory screen, read-out: IC50 [μM] (confirmatory screen)
[16] = counterscreen, negative sign = inhibitory curve
[17] = counterscreen, read-out: IC50 [μM] (counterscreen)
[18] = qHTS primary screen hits, Table S2, negative sign = inhibitory curve
[19] = qHTS FP screen hits, Table S2, negative = inhibition
[20] = qHTS FP screen hits, Table S2, read-out: IC50
[21] = qHTS FP screen hits, Table S2, one class per curve where COUNT > 1, negative sign = inhibitory curve
[22] = Table S3, confirmatory screen, YES/NO call
[23] = Table S3, confirmatory screen, read-out: IC50 [μM] (confirmatory screen)

SMILES: O=C(O)C(F)(F)F.O=C1CCCC2=C1C(c1ncccc1C(F)(F)F)N=C(Nc1nc3ccccc3o1)N2 (centres unmarked) [NCGC00189070-01]
- Curve Class (confirmatory screen) [1, 3]: 4
- Efficacy (%) (confirmatory screen) [1, 4]: -19%
- Efficacy (%) [1, 5]: -47%
- Curve Class [1, 6]: -2.2
- IC50 [1, 7]: 39.8 µM
- Confirm? (counterscreen) ([2]; Table S3, counterscreen): YES
- Curve Class (counterscreen) [2, 8]: -2.4
- Efficacy (%) (counterscreen) [2, 9]: -41%
- IC50 [2, 10]: 28.2 µM

SMILES: CN(C)[C@H]1CCN(c2cccc(Nc3nn4c(=O)c5ccccc5nc4s3)c2)C1.O=C(O)C(F)(F)F [NCGC00189222-02]
- CONFIRMATORY SCREEN Confirm? [1, 11]: YES
- CONFIRMATORY SCREEN Curve Class [1, 12]: -2.4
- CONFIRMATORY SCREEN Efficacy (%) [1, 13]: -54%
- Efficacy (%) [1, 5]: -39%
- IC50 [1, 7]: 32.8 µM
- COUNTERSCREEN Efficacy (%) [2, 14]: -79%
- COUNTERSCREEN Confirm? [2, 14]: YES
- COUNTERSCREEN Curve Class [2, 14]: -2.2
- IC50 ([2]; scrambled-peptide counterscreen, read-out: COUNTERSCREEN IC50): 56.2 µM

SMILES: Cc1ccc(CNc2ncnc3ccc(-c4ccc([C@@H](C)O)o4)cc23)o1 [NCGC00189251-01]
- Efficacy (%) (confirmatory screen) ([1]; confirmatory screen): -58%
- Confirm? (confirmatory screen) ([1]; confirmatory screen, YES/NO): YES
- Curve Class (confirmatory screen) [1, 12]: -1.2
- IC50 [1, 15]: 28.2 µM
- Efficacy (%) (counterscreen) ([2]; counterscreen): -36%
- Curve Class (counterscreen) [2, 16]: -2.2
- IC50 [2, 17]: 39.8 µM

SMILES: O=C(O)C(F)(F)F.O=C1CCCC2=C1C(c1cccnc1Br)N=C(Nc1nc3ccccc3o1)N2 (centres unmarked) [NCGC00189281-01]
- CONFIRMATORY SCREEN Efficacy (%) ([1]; confirmatory screen): -31%
- CONFIRMATORY SCREEN Curve Class ([1]; confirmatory screen): 4
- Efficacy (%) [1, 5]: -26%
- Curve Class [1, 18]: -2.4
- IC50 [1, 7]: 25.1 µM
- COUNTERSCREEN Efficacy (%) ([2]; counterscreen): 0%
- COUNTERSCREEN Curve Class ([2]; counterscreen): 4

SMILES: Cc1ccsc1C1N=C(Nc2nc3ccccc3o2)NC2=C1C(=O)CCC2.O=C(O)C(F)(F)F (centres unmarked) [NCGC00189283-01]
- Curve Class (confirmatory screen) [1, 3]: 4
- Efficacy (%) (confirmatory screen) [1, 4]: -22%
- Efficacy (%) [1, 19]: -28%
- IC50 [1, 20]: 7.9 µM
- Confirm? (counterscreen) ([2]; Table S3, counterscreen): YES
- Curve Class (counterscreen) [2, 8]: -2.4
- Efficacy (%) (counterscreen) [2, 9]: -34%
- IC50 [2, 10]: 63.1 µM

SMILES: COC(=O)c1ccc(O)c2ncc(-c3ccc(C(=O)N4CCNCC4)cc3)cc12.O=C(O)C(F)(F)F [NCGC00189509-01]
- CONFIRMATORY SCREEN Efficacy (%) ([1]; confirmatory screen): -16%
- CONFIRMATORY SCREEN Curve Class ([1]; confirmatory screen): 4
- Efficacy (%) [1, 5]: -45%
- Curve Class [1, 6]: -1.2
- IC50 [1, 7]: 28.2 µM
- COUNTERSCREEN Efficacy (%) ([2]; counterscreen): -25%
- COUNTERSCREEN Curve Class ([2]; counterscreen): 4

SMILES: COC(=O)c1ccc(O)c2ncc(-c3ccc(C(=O)NCCCN(C)C)cc3)cc12.O=C(O)C(F)(F)F [NCGC00189510-01]
- Curve Class (confirmatory screen) [1, 3]: 4
- Efficacy (%) (confirmatory screen) [1, 4]: -26%
- Efficacy (%) [1, 19]: -71%
- Curve Class [1, 21]: -2.2
- IC50 [1, 20]: 44.7 µM
- Curve Class (counterscreen) [2, 8]: 3
- Efficacy (%) (counterscreen) [2, 9]: 226%
- IC50 [2, 10]: 89.1 µM

SMILES: O=C(O)C(F)(F)F.O=C1Nc2ccccc2/C1=N/NC(=S)Nc1ccc(Oc2ccccc2)cc1 [NCGC00229524-01]
- Confirm? (confirmatory screen) [1, 22]: YES
- Curve Class (confirmatory screen) [1, 3]: -1.4
- Efficacy (%) (confirmatory screen) [1, 4]: -29%
- IC50 [1, 23]: 12.6 µM
- Efficacy (%) [1, 5]: -25%
- Curve Class [1, 18]: -1.4
- IC50 [1, 7]: 2.8 µM
- Curve Class (counterscreen) [2, 8]: -1.4
- Efficacy (%) (counterscreen) [2, 9]: -38%
- IC50 [2, 10]: 4 µM

SMILES: O=C(O)C(F)(F)F.O=C1Nc2ccccc2/C1=N/NC(=S)Nc1ccc(O)cc1 [NCGC00229525-01]
- Confirm? (confirmatory screen) [1, 22]: YES
- Curve Class (confirmatory screen) [1, 3]: -1.4
- Efficacy (%) (confirmatory screen) [1, 4]: -32%
- IC50 [1, 23]: 11.2 µM
- Efficacy (%) [1, 19]: -42%
- Curve Class [1, 21]: -1.2
- IC50 [1, 20]: 8.9 µM
- Curve Class (counterscreen) [2, 8]: -1.2
- Efficacy (%) (counterscreen) [2, 9]: -61%
- IC50 [2, 10]: 6.3 µM

SMILES: CN(C)c1ccc(NC(=S)N/N=C2\C(=O)Nc3ccccc32)cc1.O=C(O)C(F)(F)F [NCGC00229526-01]
- Efficacy (%) (confirmatory screen) ([1]; confirmatory screen): -73%
- Confirm? (confirmatory screen) ([1]; confirmatory screen, YES/NO): YES
- Curve Class (confirmatory screen) [1, 12]: -1.4
- IC50 [1, 15]: 10 µM
- Efficacy (%) [1, 5]: -38%
- Curve Class [1, 6]: -1.2
- IC50 [1, 7]: 3.5 µM
- Efficacy (%) (counterscreen) ([2]; counterscreen): -44%
- Curve Class (counterscreen) [2, 16]: -1.2
- IC50 [2, 17]: 22.4 µM

SMILES: CNC(=S)N/N=C1\C(=O)Nc2ccccc21.O=C(O)C(F)(F)F [NCGC00229528-01]
- CONFIRMATORY SCREEN Confirm? [1, 11]: YES
- CONFIRMATORY SCREEN Curve Class [1, 12]: -1.4
- CONFIRMATORY SCREEN Efficacy (%) [1, 13]: -28%
- IC50 ([1]; confirmatory screen, read-out: CONFIRMATORY SCREEN IC50): 14.1 µM
- Efficacy (%) [1, 5]: -26%
- Curve Class [1, 6]: -1.4
- IC50 [1, 7]: 7.9 µM
- COUNTERSCREEN Efficacy (%) [2, 14]: -28%
- COUNTERSCREEN Confirm? [2, 14]: YES
- COUNTERSCREEN Curve Class [2, 14]: 4
